The values below are quoted from earlier work in patent publication US20040131543A1, “Radiopharmaceuticals and radioactive microspheres for locoregional ablation of abnormal tissues” (priority 2002, published 2004).

For the data set the following is noted: single intratracheal instillation, rats.

Turning to `[Cl][Gd]([Cl])[Cl]` [GdCl3, Gd chloride], the “Half-life of Gd deposited in lung tissue” value is “extremely long half-life”.
